Reference: patent US9868935B2, “Composition and method of stem cells for preservation of cardiac tissue” (CRIOESTAMINAL, SAÚDE E TECNOLOGIA, SA., priority 2012, dated 2018)

Tests used:
[1] = tested on: human umbilical cord blood derived CD34+ cells; assay: CD34+ cell survival in hypoxia and serum deprived conditions (Annexin V/PI flow cytometry); type: cell-based; settings: hypoxia 0.5% O2, 24 h, serum free; P<0.001
Description: In an embodiment, UCB CD34+ cells (1×10^^6 cells/mL) were incubated in X-Vivo media (Lonza) in a hypoxia chamber for 24 h (0.5% of O2 and 5% of CO2), in the presence or absence of pharmacological drugs, for further assessment of cell survival/apoptosis and necrosis by FACS analysis of the expression of annexin V and PI respectively. Preferably, cells were pretreated with the respective drugs for 1 hour before hypoxia, and treatment maintained during hypoxia.
In a preferred embodiment, to identify molecules that promote CD34+ cell survival in hypoxia and serum deprived conditions we developed an assay that uses human umbilical cord blood derived CD34+ cells (2×10^^5 cells per well of a 96-well plate) suspended in X-Vivo medium (used in clinical trials (Schachinger, V., et al., Intracoronary bone marrow-derived progenitor cells in acute myocardial infarction. N Engl J Med, 2006. 355(12): p. 1210-21)) and incubated in a hypoxia chamber at 0.5% O2, at 37° C., for 24 h. Some of the drugs selected have been approved by FDA for the treatment of cardiovascular diseases (e.g. Nebivolol Lombardo, R. M., et al., Effects of nebivolol versus carvedilol on left ventricular function in patients with chronic heart failure and reduced left ventricular systolic function. Am J Cardiovasc Drugs, 2006. 6(4): p. 259-63; Ibersatan Massie, B. M., et al., Irbesartan in patients with heart failure and preserved ejection fraction. N Engl J Med, 2008. 359(23): p. 2456-67), others are being evaluated in pre-clinical/clinical assays to improve heart function in patients/models with heart failure (e.g. INO1001 (Szabo, G., et al., INO-1001 a novel poly(ADP-ribose) polymerase (PARP) inhibitor improves cardiac and pulmonary function after crystalloid cardioplegia and extracorporal circulation. Shock, 2004. 21(5): p. 426-32); erythropoietin (Belonje, A. M., et al., Effects of erythropoietin after an acute myocardial infarction: rationale and study design of a prospective, randomized, clinical trial (HEBE III). Am Heart J, 2008. 155(5): p. 817-22); melatonin (Chen, Z., et al., Protective effect of melatonin on myocardial infarction. Am J Physiol Heart Circ Physiol, 2003. 284(5): p. H1618-24); VX-702 (Ma, X. L., et al., Inhibition of p38 mitogen-activated protein kinase decreases cardiomyocyte apoptosis and improves cardiac function after myocardial ischemia and reperfusion. Circulation, 1999. 99(13): p. 1685-91)), others are natural substances found in the human body (LPA). Cell viability was evaluated by flow cytometry using Annexin V/propidium iodide (PI) staining. Annexin V is a phospholipid-binding protein with specificity for phospatidyl serine, one of the earliest makers of cellular transition to an apoptotic state. This phospholipid is translocated from the inner to the outer leaflet of the plasma membrane (Koopman, G., et al., Annexin V for flow cytometric detection of phosphatidylserine expression on B cells undergoing apoptosis. Blood, 1994. 84(5): p. 1415-20.). PI enters in necrotic cells and binds to double-stranded nucleic acids, but is excluded from cells with normal integrity. According to FIG. 1, untreated CD34+ cells show a very poor survival, with only ˜31% of viable cells, ˜31% of apoptotic cells (Annexin V+/PI−) being the majority of the cells ˜39% at the necrotic stage (PI+). […] LPA (10 μM) was the drug with the highest pro-survival effect (˜69% of viable cells) and therefore further studied (FIGS. 1 and 2A).
Importantly, the percentage of viable cells in CD34+ treated with 1 μM of LPA and cultured under hypoxia conditions is similar to untreated cells cultured under normoxia conditions. The pro-survival effect of LPA decreases as a function of hypoxia time (FIG. 2C). The percentage of viable cells in LPA-treated CD34+ cells decreased from 78% at day 1 to 40% at day 3.

CD34+ cells = assay: Antagonist pretreatment and LPA-induced CD34+ cell survival in hypoxia (Annexin V/PI FACS); type: cell-based, human; settings: hypoxia 24 h; for effect of antagonist on pro-survival effect of LPA: antagonist 1 h pretreatment + LPA 100 μM
Description: FIG. 5—LPA induces CD34+ cell survival mainly through peroxisome proliferator-activator receptor (PPAR). Cells were cultured in serum free medium with LPA. Cells were pretreated with Rho kinase inhibitor (Y-2762, 50 μM), mitogen-activated protein kinase (MAPK) inhibitor (PD98059, 60 μM), LPA1- and LPA3-specific inhibitor (Ki16425, 10 μM), or peroxisome proliferator-activator receptor g (PPARg) inhibitor (GW9662, 50 μM) for 1 hour before hypoxia and cell medium containing LPA (100 μM) for 24 h. Cells without any pretreatment and cultured in serum free medium with or without LPA, in hypoxia for 24 h, were used as positive and negative controls, respectively. Results are average±SEM (n=3-6). * Denote statistical significance: *P<0.05, **P<0.01, […].
The biological roles of LPA are diverse and include developmental, physiological, and pathophysiological effects (Lin, M. E., D. R. Herr, and J. Chun, Lysophosphatidic acid (LPA) receptors: signaling properties and disease relevance. Prostaglandins Other Lipid Mediat, 2010. 91(3-4): p. 130-8). To date up to five LPA receptors (LPARs) have been identified: LPA1-LPA5 (Choi, J. W., et al., LPA receptors: subtypes and biological actions. Annu Rev Pharmacol Toxicol, 2010. 50: p. 157-86). The receptors are G protein-coupled receptors (GPCRs) and their presence can be found in multiple tissues. LPA1, LPA2 and LPA3 are widely expressed in most tissues (Ishii, I., et al., Functional comparisons of the lysophosphatidic acid receptors, LP(A1)/VZG-1/EDG-2, LP(A2)/EDG-4, and LP(A3)/EDG-7 in neuronal cell lines using a retrovirus expression system. Mol Pharmacol, 2000. 58(5): p. 895-902). LP4 is expressed in specific organs, such as the pancreas, ovaries and thymus (Lee, C. W., et al., LPA(4)/GPR23 is a lysophosphatidic acid (LPA) receptor utilizing G(s)-, G(q)/G(i)-mediated calcium signaling and G(12/13)-mediated Rho activation. J Biol Chem, 2007. 282(7): p. 4310-7). LPA5 is expressed at low levels in multiple tissues (Lee, C. W., et al., GPR92 as a new G12/13- and Gq-coupled lysophosphatidic acid receptor that increases cAMP, LPA5. J Biol Chem, 2006. 281(33): p. 23589-97). To identify the receptor that is mediating the pro-survival effect of LPA (100 μM), was used Ki16425 (10 μM), an LPA1- and LPA3-specific antagonist, and GW9662 (50 μM), an antagonist of peroxisome proliferator-activator receptor γ (PPAR γ). Studies indicate that LPA has a high affinity by this last receptor (McIntyre, T. M., et al., Identification of an intracellular receptor for lysophosphatidic acid (LPA): LPA is a transcellular PPARgamma agonist. Proc Natl Acad Sci USA, 2003. 100(1): p. 131-6; Gustin, C., M. Van Steenbrugge, and M. Raes, LPA modulates monocyte migration directly and via LPA-stimulated endothelial cells. Am J Physiol Cell Physiol, 2008. 295(4): p. C905-14). This approach was complemented, by inhibiting downstream targets of the receptors including Rho kinase and mitogen-activated protein kinase (MAPK) using Y-2762 (50 μM) and PD98059 (60 μM) antagonists, respectively. It is known that all LPARs couple with and activate G proteins, which in turn activate MAPK (LPA1, LPA2, LPA3 and LPA4) and Rho kinase (LPA1, LPA2, LPA4 and LPA5) (Choi, J. W., et al., LPA receptors: subtypes and biological actions. Annu Rev Pharmacol Toxicol, 2010. 50: p. 157-86). Cells were treated for 1 h in X-Vivo medium containing a specific antagonist followed by culture under hypoxia conditions for 24 h. Cell survival was assessed by FACS analysis after Annexin V/PI staining. […] The number of viable cells decreased from 77% (+LPA) to 67% (P<0.01, n=19). […] Because the two signaling pathways are downstream targets of different LPARs (see above), this might indicate different contributions of LPARs in the survival of CD34+ cells.

| Structure (SMILES) | cell survival vs untreated cells [1] | number of viable cells induced by LPA after antagonist (CD34+ cells; GW9662 50 μM 1 h pretreatment + LPA 100 μM, P<0.001, n=11) [%] | effect of antagonist on pro-survival effect of LPA (CD34+ cells) | number of viable cells induced by LPA after antagonist (CD34+ cells; Ki16425 10 μM 1 h pretreatment + LPA 100 μM, P<0.01, n=19) [%] |
| --- | --- | --- | --- | --- |
| CCCCC[C@H](O)/C=C/[C@H]1[C@H](O)CC(=O)[C@@H]1C/C=C\CCCC(=O)O [prostaglandin E2, reference compound] | improved significantly |  |  |  |
| O=C(Nc1ccccc1)c1cc([N+](=O)[O-])ccc1Cl [GW9662] |  | ~53 | did not block totally the pro-survival effect of LPA |  |
| COc1cccc(-c2cc(=O)c3ccccc3o2)c1N [PD98059] |  |  | suppressed at higher levels the pro-survival effect of LPA than the inhibition of Rho kinase signaling pathway |  |
| Cc1noc(-c2ccc(CSCCC(=O)O)cc2)c1NC(=O)OC(C)c1ccccc1Cl (stereo not drawn) [Ki16425] |  |  | relatively small effect | 67 |
